Results: US20250304542A1, “Fused Heterobicyclic Antiviral Agents” (Enanta Pharmaceuticals, Inc., priority 2024, published 2025)

Columns and labels:
NTCP = target: T1, NTCP (Homo sapiens, UniProt Q14973); experiment: HepG2-NTCP preS1 Binding Competition Assay; conditions: HepG2-NTCP cells pre-treated 2 hours, FITC-labeled myristoylated preS1 peptide co-incubated 30 minutes, cell-surface fluorescence; read-out: Cellular EC50
T1 construct: expressed in transfected cells; host or cells: HepG2-NTCP (A3 clone, kept under puromycin)
T1 sequence (Q14973 1-349): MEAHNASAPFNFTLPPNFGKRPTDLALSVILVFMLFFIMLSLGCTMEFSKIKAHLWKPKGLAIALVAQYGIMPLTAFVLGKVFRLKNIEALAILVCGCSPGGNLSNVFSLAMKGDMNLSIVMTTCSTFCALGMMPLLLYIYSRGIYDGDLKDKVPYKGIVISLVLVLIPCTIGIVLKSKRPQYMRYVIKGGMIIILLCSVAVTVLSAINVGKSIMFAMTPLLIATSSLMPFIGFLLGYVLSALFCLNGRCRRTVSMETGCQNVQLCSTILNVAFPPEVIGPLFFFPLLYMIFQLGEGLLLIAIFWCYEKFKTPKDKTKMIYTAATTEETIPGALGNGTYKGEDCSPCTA
Experimental: Myristoylated preS1 peptide (2-48 aa) conjugated to a C-terminal FITC tag was synthesized to evaluate preS1 binding to NTCP-expressing cells. HepG2-NTCP cells seeded in 384-wells were pre-treated with compounds for 2 hours prior to the addition of FITC-labeled preS1 peptide. After co-incubation for 30 minutes, unbound FITC-preS1 peptide was washed twice with PBS, and the fluorescence of preS1-FITC bound to cell surface was detected by Envision plate reader. EC50 ranges are as follows: A<0.1 μM; B 0.1-1 μM; C>1 μM. A dash (-) indicates the compound was not tested.

HBV = HBV Infection in HepG2-NTCP Cells (HBeAg AlphaLISA); assay type: cell-based; conditions: Hepatitis B virus, 192 h, read-out: Cellular EC50 (μM)
Experimental: HepG2-NTCP A3 cells were maintained in DMEM media supplemented with GlutaMAX™, 10% fetal bovine serum, 1% penicillin/streptomycin, and 5 μg/mL puromycin at 37° C. in a humidified atmosphere with 5% CO2 in a collagen-coated tissue culture flask.
HepG2-NTCP cells were seeded in 384 well plate containing 16,000 cells/well two days prior to the infection. On the day of infection, compounds were 3-fold serially diluted in DMSO and pre-incubated with HepG2-NTCP cells for two hours before purified HBV addition. HBV infection was carried out at 2000 GE/cell with 4% PEG, and the final concentration of DMSO is 0.5%. On day one post infection, HBV-containing media was aspirated, cells were washed once with PBS and then maintained in 2.5% DMSO containing media for the remainder of the assay.
Supernatants from infected HepG2-NTCP cells were collected at day 8 post infection, and the amount of viral antigen HBeAg was measured by HBeAg AlphaLISA detection kit (PerkinElmer) following the manufacturer's recommended protocol. Irrespective of readout, compound concentrations that reduce viral product accumulation in supernatants by 50% relative to DMSO controls (EC50) are reported. EC50 ranges are as follows: A<0.1 μM; B 0.1-1 μM; C>1 μM. A dash (-) indicates the compound was not tested.

Row | SMILES | EC50 (NTCP) [nM] | EC50 (HBV) [µM]
1 | CNc1cc2c(cc1C(=O)N[C@H](C(=O)O)c1ccc(C(F)(F)F)cc1)S(=O)(=O)N(C)[C@H](C1CCCCC1)CN2c1ccccc1 [Example 39, (S)-2-((R)-3-cyclohexyl-2-methyl-7-(methylamino)-1,1-dioxido-5-phenyl-2,3,4,5-tetrahydrobenzo[f][1,2,5]thiadiazepine-8-carboxamido)-2-(4-(trifluoromethyl)phenyl)acetic acid] | < 100 | < 0.1
2 | CNc1cc2c(cc1C(=O)N[C@H](C(=O)O)c1cccc(Cl)c1)S(=O)(=O)N(C)[C@H](C1CCCCC1)CN2c1ccccc1 [Example 45] | < 100 | < 0.1
3 | CN1[C@H](C2CCCCC2)CN(c2ccccc2)c2cc(F)c(CCCC(=O)O)cc2S1(=O)=O [Example 7] | 100 to 1000 | 0.1 to 1
4 | CNc1cc2c(cc1C(=O)N[C@H](C(=O)O)C1CCCCC1)S(=O)(=O)N(C)[C@H](C1CCCCC1)CN2c1ccccc1 [Example 41] | < 100 | < 0.1
5 | CN1[C@H](C2CCCCC2)CN(c2ccccc2)c2cc(Cl)c(CC[C@H](NC(=O)OC(C)(C)C)C(=O)O)cc2S1(=O)=O [Example 12, (S)-2-((tert-butoxycarbonyl)amino)-4-((R)-7-chloro-3-cyclohexyl-2-methyl-1,1-dioxido-5-phenyl-2,3,4,5-tetrahydrobenzo[f][1,2,5]thiadiazepin-8-yl)butanoic acid] | < 100 | < 0.1
6 | CN1[C@H](C2CCCCC2)CN(c2ccccc2)c2cc(Cl)c(CCC3(C(=O)O)CC3)cc2S1(=O)=O [Example 6] | 100 to 1000 | < 0.1
7 | CNc1cc2c(cc1C(=O)N[C@H](C(=O)O)c1ccsc1)S(=O)(=O)N(C)[C@H](C1CCCCC1)CN2c1ccccc1 [Example 40] | < 100 | 0.1 to 1
8 | CN1[C@H](C2CCCCC2)CN(c2ccccc2)c2cc(Cl)c(CC[C@@H](NC(=O)OC(C)(C)C)C(=O)O)cc2S1(=O)=O [Example 13] | < 100 | < 0.1
9 | CCCCN(C)C(=O)C(=O)N[C@@H](CCc1cc2c(cc1Cl)N(c1ccccc1)C[C@@H](C1CCCCC1)N(C)S2(=O)=O)C(=O)O [Example 32, (S)-2-(2-(butyl(methyl)amino)-2-oxoacetamido)-4-((R)-7-chloro-3-cyclohexyl-2-methyl-1,1-dioxido-5-phenyl-2,3,4,5-tetrahydrobenzo[f][1,2,5]thiadiazepin-8-yl)butanoic acid] | < 100 | < 0.1
10 | CC(C)CS(=O)(=O)N[C@H](CCc1cc2c(cc1Cl)N(c1ccccc1)C[C@@H](C1CCCCC1)N(C)S2(=O)=O)C(=O)O [Example 29] | < 100 | 0.1 to 1
